# Data taken from doi:10.1101/2023.07.03.547578v2 (bioRxiv, 2023).
# Where two headings read alike, the source gives them in different places.
# Columns and labels:
# [1] = Stability in plasma; assay type: in vitro ADME; conditions: abstract; method not given
# [2] = target: T1, RyR2 (Sus scrofa, UniProt A0A5G2R1W3); test: [3H]ryanodine binding assay in cardiac SR vesicles; design: species or system porcine
# [3] = ref Smith et al., 2021; cited from earlier work
# [4] = In vivo pharmacokinetic study; design: species or system mouse; conditions: 3 mg/kg i.p.
# [5] = tested on: Casq2-/- mice; test: Catecholamine-induced arrhythmia challenge; assay type: in vivo, mouse; conditions: 3 and 30 mg/kg i.p., ECG
# [6] = tested on: RyR2-mediated spontaneous Ca2+ release in Casq2-/- cardiomyocytes; conditions: read-out: IC50, intact cardiomyocyte assay; ref Batiste et al., 2019; cited from earlier work
# [7] = mice; ref Blackwell et al., 2023; cited from earlier work
# [8] = tested on: Casq2-/- mice; conditions: ref Blackwell et al., 2023, cited from earlier work
# [9] = target: T1, RyR2; conditions: read-out: IC50, ryanodine binding assay; ref Batiste et al., 2019; cited from earlier work
# [10] = tested on: insect RyR; conditions: ref Ohshiro et al., 2012; cited from earlier work
# [11] = tested on: RyR2; conditions: ref Ohshiro et al., 2012; cited from earlier work
# T1 sequence (A0A5G2R1W3 20-4900): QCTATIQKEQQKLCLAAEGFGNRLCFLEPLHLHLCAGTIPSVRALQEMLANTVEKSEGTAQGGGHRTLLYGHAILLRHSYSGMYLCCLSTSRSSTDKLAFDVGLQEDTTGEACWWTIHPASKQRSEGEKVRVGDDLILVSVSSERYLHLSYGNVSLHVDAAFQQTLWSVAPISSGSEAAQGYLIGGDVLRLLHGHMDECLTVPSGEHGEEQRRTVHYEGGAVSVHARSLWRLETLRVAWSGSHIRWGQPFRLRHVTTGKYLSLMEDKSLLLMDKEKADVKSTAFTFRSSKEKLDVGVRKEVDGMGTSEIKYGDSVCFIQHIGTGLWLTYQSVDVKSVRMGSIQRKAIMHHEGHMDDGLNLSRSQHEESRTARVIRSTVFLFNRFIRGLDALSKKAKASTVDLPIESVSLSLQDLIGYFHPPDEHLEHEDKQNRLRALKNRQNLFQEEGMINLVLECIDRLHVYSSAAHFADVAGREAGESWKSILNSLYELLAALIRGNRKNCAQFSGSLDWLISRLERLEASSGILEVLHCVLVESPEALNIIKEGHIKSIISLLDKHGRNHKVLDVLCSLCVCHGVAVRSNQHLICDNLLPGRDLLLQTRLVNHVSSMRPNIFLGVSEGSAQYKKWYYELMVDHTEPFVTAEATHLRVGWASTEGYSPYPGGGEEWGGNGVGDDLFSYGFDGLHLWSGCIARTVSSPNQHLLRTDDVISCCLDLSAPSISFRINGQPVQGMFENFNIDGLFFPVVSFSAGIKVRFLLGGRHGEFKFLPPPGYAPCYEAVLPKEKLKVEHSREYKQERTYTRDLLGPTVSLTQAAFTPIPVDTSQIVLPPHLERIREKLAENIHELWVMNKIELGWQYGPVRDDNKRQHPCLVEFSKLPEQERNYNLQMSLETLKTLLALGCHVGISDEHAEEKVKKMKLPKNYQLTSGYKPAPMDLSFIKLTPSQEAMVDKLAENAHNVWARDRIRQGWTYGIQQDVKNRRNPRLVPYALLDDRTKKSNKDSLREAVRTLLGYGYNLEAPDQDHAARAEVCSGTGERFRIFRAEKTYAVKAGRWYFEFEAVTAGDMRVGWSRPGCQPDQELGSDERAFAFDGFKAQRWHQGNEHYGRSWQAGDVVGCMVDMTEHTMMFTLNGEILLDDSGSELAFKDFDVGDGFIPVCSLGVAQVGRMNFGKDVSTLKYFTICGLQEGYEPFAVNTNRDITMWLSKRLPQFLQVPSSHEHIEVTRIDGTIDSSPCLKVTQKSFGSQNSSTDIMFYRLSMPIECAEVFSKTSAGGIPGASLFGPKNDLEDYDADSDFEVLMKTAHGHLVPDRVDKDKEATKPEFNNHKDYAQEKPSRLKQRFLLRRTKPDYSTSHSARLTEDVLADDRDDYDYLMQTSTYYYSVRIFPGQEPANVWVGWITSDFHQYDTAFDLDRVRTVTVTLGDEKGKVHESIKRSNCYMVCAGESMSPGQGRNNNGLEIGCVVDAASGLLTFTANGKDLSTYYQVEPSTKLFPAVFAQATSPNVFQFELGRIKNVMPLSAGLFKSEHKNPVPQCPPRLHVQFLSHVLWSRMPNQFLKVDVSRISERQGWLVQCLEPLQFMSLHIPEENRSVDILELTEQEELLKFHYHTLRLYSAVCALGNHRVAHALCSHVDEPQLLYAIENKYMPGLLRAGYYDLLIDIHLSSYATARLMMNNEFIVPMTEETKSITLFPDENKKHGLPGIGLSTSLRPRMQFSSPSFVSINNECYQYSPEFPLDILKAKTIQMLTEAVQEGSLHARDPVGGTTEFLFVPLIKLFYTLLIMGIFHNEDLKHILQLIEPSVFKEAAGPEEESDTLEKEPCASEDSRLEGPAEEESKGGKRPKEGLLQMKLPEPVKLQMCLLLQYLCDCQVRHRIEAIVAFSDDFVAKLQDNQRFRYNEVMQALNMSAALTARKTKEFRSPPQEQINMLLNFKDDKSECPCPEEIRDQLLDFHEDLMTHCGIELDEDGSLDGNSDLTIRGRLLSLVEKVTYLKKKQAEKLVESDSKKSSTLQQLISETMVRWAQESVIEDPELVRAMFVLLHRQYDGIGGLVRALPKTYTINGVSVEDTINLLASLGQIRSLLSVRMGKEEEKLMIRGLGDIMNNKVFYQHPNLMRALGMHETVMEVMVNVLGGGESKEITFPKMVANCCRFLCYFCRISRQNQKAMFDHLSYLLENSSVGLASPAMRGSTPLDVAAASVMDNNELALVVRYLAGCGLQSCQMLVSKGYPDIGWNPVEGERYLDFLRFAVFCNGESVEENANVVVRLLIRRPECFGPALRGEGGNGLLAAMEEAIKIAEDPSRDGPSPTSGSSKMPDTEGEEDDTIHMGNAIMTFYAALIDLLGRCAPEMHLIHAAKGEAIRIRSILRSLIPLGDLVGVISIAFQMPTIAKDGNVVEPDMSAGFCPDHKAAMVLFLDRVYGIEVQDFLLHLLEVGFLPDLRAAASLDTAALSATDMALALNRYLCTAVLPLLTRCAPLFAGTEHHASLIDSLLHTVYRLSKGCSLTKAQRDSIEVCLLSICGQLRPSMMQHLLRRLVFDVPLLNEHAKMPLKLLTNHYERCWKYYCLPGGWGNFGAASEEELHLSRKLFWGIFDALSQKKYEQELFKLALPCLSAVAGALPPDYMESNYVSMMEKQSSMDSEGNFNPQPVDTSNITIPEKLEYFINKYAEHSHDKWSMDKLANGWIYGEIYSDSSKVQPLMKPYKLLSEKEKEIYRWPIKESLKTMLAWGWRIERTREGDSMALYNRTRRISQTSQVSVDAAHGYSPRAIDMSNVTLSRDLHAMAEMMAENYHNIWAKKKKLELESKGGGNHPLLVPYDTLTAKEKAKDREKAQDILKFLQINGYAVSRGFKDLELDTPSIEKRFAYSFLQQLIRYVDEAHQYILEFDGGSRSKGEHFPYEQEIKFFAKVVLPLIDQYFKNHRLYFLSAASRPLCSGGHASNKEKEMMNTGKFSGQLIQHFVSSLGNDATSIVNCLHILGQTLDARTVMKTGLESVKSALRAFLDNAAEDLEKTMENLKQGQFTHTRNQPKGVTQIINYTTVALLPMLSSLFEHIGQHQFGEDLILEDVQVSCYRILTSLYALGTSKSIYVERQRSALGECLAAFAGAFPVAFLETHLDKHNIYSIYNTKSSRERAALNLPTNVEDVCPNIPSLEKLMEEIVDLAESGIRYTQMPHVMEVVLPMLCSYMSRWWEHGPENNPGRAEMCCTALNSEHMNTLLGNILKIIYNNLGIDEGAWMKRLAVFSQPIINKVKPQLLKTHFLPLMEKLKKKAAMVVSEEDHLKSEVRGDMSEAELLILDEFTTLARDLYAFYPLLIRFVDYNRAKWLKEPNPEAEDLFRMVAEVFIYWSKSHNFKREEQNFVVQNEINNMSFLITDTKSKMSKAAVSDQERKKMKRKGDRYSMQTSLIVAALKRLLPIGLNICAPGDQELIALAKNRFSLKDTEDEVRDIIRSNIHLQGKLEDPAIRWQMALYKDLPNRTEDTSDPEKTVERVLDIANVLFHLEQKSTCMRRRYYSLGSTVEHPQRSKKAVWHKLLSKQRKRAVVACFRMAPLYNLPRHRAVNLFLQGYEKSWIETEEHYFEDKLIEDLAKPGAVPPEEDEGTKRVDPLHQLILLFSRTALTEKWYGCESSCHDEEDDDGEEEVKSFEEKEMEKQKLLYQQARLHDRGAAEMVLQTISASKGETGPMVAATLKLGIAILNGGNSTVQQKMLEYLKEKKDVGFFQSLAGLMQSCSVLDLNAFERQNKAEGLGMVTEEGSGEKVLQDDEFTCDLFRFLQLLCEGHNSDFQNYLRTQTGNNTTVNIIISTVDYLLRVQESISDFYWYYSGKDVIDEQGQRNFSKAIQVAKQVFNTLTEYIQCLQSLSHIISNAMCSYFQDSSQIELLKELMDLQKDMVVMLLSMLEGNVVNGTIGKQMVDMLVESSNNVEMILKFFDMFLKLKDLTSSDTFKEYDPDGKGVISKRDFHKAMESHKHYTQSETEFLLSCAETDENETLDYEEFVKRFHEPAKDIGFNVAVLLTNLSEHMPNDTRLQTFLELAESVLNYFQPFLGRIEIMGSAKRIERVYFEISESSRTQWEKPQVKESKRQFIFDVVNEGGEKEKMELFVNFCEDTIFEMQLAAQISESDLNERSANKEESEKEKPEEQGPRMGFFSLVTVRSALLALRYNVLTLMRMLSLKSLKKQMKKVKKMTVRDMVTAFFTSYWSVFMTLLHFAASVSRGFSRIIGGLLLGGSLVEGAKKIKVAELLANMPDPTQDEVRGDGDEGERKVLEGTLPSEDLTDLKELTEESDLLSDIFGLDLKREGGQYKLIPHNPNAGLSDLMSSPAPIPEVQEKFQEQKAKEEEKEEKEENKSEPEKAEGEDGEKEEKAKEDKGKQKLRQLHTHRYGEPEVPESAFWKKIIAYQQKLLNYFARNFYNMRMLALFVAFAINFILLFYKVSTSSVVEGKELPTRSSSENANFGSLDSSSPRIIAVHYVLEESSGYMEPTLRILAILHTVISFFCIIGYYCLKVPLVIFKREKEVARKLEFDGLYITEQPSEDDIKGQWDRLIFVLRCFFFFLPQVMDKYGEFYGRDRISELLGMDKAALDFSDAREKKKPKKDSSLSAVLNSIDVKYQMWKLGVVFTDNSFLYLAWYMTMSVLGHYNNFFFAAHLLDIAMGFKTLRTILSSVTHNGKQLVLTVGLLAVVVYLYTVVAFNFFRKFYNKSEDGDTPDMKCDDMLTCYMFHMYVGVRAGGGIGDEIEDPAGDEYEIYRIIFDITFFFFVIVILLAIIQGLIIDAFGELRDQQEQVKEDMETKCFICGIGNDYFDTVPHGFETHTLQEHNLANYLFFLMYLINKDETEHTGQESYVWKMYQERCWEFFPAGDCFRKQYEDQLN
compound,measurement,setting,value
"CCCCC[C@@H]1OC(=O)[C@@H](C)N(C)C(=O)[C@H](CCCCC)OC(=O)[C@@H](C)N(C)C(=O)[C@H](CCCCC)OC(=O)[C@@H](C)N(C)C1=O (single isomer, unassigned) [ent-B1, ent-verticilide B1]",stability in plasma,[1],stable
same,IC50,[2],1930 nM
same,maximal inhibition of [3H]ryanodine binding,[2]; incomplete maximal inhibition vs DMSO,approximately 30%
same,lipophilicity relative to ent-1,[3],loss of lipophilicity
same,clinical observation during the PK study,"[4]; CD1 mice, up to 480 min",no abnormality
same,time of peak plasma concentration,"[4]; mice, plasma",10 min
same,elimination half-life (t1/2),"[4]; mice, plasma, mean",0.757 h
same,QRS width,[5],No changes
same,heart rate,[5],No changes
ent-(+)-verticilide [ent-1],IC50,[6],100 nM
same,half-life (t1/2),[7],6.92 h
same,VT incidence,"[8]; 30 mg/kg, same arrhythmia induction protocol",~35%
same,antiarrhythmic efficacy in vivo,[8]; single dose study at 3 and 30 mg/kg i.p.,had antiarrhythmic efficacy
same,IC50,[9],100 nM
verticilide B1,activity against insect RyR,[10],not active
same,activity against RyR2,[11],not active
